Test results: paper PMC10721928, “Structures revealing mechanisms of resistance and collateral sensitivity of Plasmodium falciparum to proteasome inhibitors” (Nature Communications, 2023)
Where two headings read alike, the source gives them in different places.

Legend:
[1] = test system: Mutants resistant to proteasome inhibitors; settings: versus corresponding wild-type strains; cited from earlier work
Text: (§1) Mutations in Kelch13 (K13) are associated with ART resistance at the ring stage in laboratory settings[20]–[22]. […] Even a strain with doub ...

DR2 = assay: Parasite growth inhibition assay, DR2; type: cell-based; settings: Plasmodium falciparum, read-out: EC50 (Fig. 1e)
Procedure: (§2) Parasite growth inhibition assays for P. falciparum wild type and mutants were performed as reported[19],[32].

DR1/2/4 = assay: Parasite growth inhibition assay, DHA-selected clones; type: cell-based, Plasmodium falciparum
Procedure: as §2

[2] = test system: strain with double mutations in both the proteasome and K13; settings: versus wild-type strain; cited from earlier work
Text: as §1

DR4 = assay: Parasite growth inhibition assay, DR4; type: cell-based; settings: Plasmodium falciparum, Exp 2; read-out: EC50 (Fig. 1e)
Procedure: as §2

Dd2 = assay: Parasite growth inhibition assay, Dd2; type: cell-based; settings: Plasmodium falciparum
Procedure: as §2

Cam3.I^Rev = assay: Ring-stage survival assay, revertant; type: cell-based, Plasmodium falciparum; settings: 700 nM, 6 h
Procedure: (§3) Ring-stage survival assays (RSA) were performed as reported. Parasite cultures, artemisinin resistant Cam3.I^R539T and the genetically engineered artemisinin sensitive revertant Cam3.I^rev, were synchronized with 5% sorbitol and a Percoll-sorbitol gradient to obtain tightly synchronized late-stage parasites. After isolation, the tightly synchronized parasites were then allowed to reinvade fresh red blood cells for 3 h and the microscopically confirmed ring stage parasite cultures were again subjected to 5% sorbitol to obtain 0–3 h rings. The isolated ring stage cultures were then plated into a 96-well plate at 0.5% parasitemia and treated with DHA and TDI-8304 at 700 nM at 37 °C in standard gas conditions for 6 h. The plates were then spun and washed to remove compounds and replenished with fresh medium without compounds. Parasite growth was assessed 66 h later using flow cytometry (Becton-Dickson flow cytometer) and nucleic acid stains HO (Hoechst 33342) and TO (thiazole orange).

DR1 = assay: Parasite growth inhibition assay, DR1; type: cell-based; settings: Plasmodium falciparum, read-out: EC50 (Fig. 1e)
Procedure: as §2

Cam3.I^R539T = assay: Ring-stage survival assay, ART-resistant; type: cell-based, Plasmodium falciparum; settings: 700 nM, 6 h
Procedure: as §3

P. falciparum 3D7A = settings: compared with pyrimethamine; cited from earlier work
Text: We previously reported two classes of non-covalent Pf20S selective inhibitors, one with a fast-on/off kinetics, represented by TDI-4258[19], and one with a time-dependent inhibition kinetics, represented by TDI-8304 (Fig. 1a)[16]. […] To investigate if inhibitors of the same target with diffe ...

SMILES: C[C@@H]1CC[C@H]2[C@@H](C)C(=O)O[C@@H]3O[C@@]4(C)CC[C@@H]1[C@]32OO4 [ART, artemisinin]
- susceptibility to ART [1]: more susceptible to ART than the corresponding wild-type strains

SMILES: C[C@H]1[C@@H](O)O[C@@H]2O[C@@]3(C)CC[C@H]4[C@H](C)CC[C@@H]1[C@@]24OO3 [DHA, dihydroartemisinin]
- EC50 (DR2; Exp 1): 10.7 nM
- EC50 (DR2; Exp 2): 8.7 nM
- EC50 shift in the erythrocyte assays (DR1/2/4; DHA-selected clones versus Dd2): ~ 10 fold
- sensitivity of DR1/2/4 in words (DR1/2/4; trophozoite stage, versus Dd2): highly resistant
- susceptibility to DHA [2]: more susceptible to DHA than the wild-type strain
- EC50 (DR4): 8.1 nM
- EC50 (Dd2; DD2, read-out: EC50 (Fig. 1e), Exp 1): 1 nM
- EC50 (Dd2; DD2, read-out: EC50 (Fig. 1e), Exp 2): 0.9 nM
- ring-stage survival result in words, K13 Rev (Cam3.I^Rev; 0–3 h rings, readout 66 h later): highly susceptible
- ring-stage survival (Fig. 1c) (Cam3.I^Rev; Exp 1): 1.86
- ring-stage survival (Fig. 1c) (Cam3.I^Rev; Exp 2): -0.27
- ring-stage survival (Fig. 1c) (Cam3.I^Rev; Exp 3): 3.91
- EC50 (DR1; Exp 1): 12.2 nM
- EC50 (DR1; Exp 2): 7.1 nM
- ring-stage survival result in words, K13 R539T (Cam3.I^R539T; 0–3 h rings, readout 66 h later, means of three independent experiments, paired t test): highly resistant
- ring-stage survival (Fig. 1c) (Cam3.I^R539T; Exp 1): 18.01
- ring-stage survival (Fig. 1c) (Cam3.I^R539T; Exp 2): 10.3
- ring-stage survival (Fig. 1c) (Cam3.I^R539T; Exp 3): 6.84

SMILES: Cc1cc(C(=O)N[C@@H](CC(=O)NC(C)(C)C)C(=O)NCCNC(=O)c2cccc(-n3cccn3)c2)no1 [TDI-4258]
- in vitro parasite reduction ratio (P. falciparum 3D7A): modest in vitro parasite reduction ratio similar to that of the antimalarial drug pyrimethamine
